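Cells were grown in 96-well plates and exposed to each compound for 48 hours at five concentrations; endpoints were interpolated linearly between bracketing concentrations, or set to the highest concentration if not reached. GI50 is the concentration that inhibits growth by half.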 The source made the active and inactive calls. No stated cut-off is given here; in the data, active = GI50 up to about 1.1 µM and inactive = higher.
Legend:
Test in all cases: inhibition of tumour cell growth, NCI panel, 48 h
CCRF-CEM = system: CCRF-CEM
HCT-116 = system: HCT-116
SNB-75 = system: SNB-75
786-0 = system: 786-0
HT-29 = system: HT-29
OVCAR-3 = system: OVCAR-3
RXF 393 = system: RXF 393
A498 = system: A498
HCC 2998 = system: HCC 2998
ACHN = system: ACHN
IGROV-1 = system: IGROV-1
HCT-15 = system: HCT-15
SW-620 = system: SW-620
OVCAR-8 = system: OVCAR-8
Malme-3M = system: Malme-3M
SK-MEL-2 = system: SK-MEL-2

Measured: GI50

C/C(CC(=O)N(C(C)C)C(C)C)=N\NC(=O)c1ccncc1
> 100 µM: HCT-15
inactive: CCRF-CEM > 100 µM | HCT-116 > 100 µM | SNB-75 95.7 µM | 786-0 > 100 µM | HT-29 > 100 µM | OVCAR-3 > 100 µM | RXF 393 > 100 µM | A498 > 100 µM | HCC 2998 > 100 µM | ACHN > 100 µM | IGROV-1 > 100 µM | SW-620 > 100 µM | OVCAR-8 > 100 µM | Malme-3M > 100 µM

COc1cc2ccnc(C#N)c2cc1OCc1ccccc1
> 100 µM: HCT-15
inactive: CCRF-CEM > 100 µM | HCT-116 > 100 µM | SNB-75 21.9 µM | 786-0 37.4 µM | SK-MEL-2 64.1 µM | HT-29 > 100 µM | OVCAR-3 > 100 µM | A498 87.1 µM | HCC 2998 > 100 µM | ACHN > 100 µM | SW-620 > 100 µM | OVCAR-8 > 100 µM | Malme-3M > 100 µM

Cc1ccccc1C(=O)N1CCN(C(=O)c2ccccc2C)CC1
inactive: CCRF-CEM > 100 µM | HCT-116 > 100 µM | SNB-75 > 100 µM | 786-0 > 100 µM | HT-29 > 100 µM | OVCAR-3 > 100 µM | RXF 393 > 100 µM | A498 > 100 µM | HCC 2998 > 100 µM | ACHN > 100 µM | IGROV-1 > 100 µM | SW-620 > 100 µM | OVCAR-8 > 100 µM
> 100 µM: HCT-15

Cn1c(C2CC(C)(C)c3c2c2ccccc2n3C)cc2ccccc21 (stereo not drawn)
> 304 µM: HCT-15
inactive: CCRF-CEM > 304 µM | HCT-116 30.1 µM | 786-0 > 304 µM | SK-MEL-2 > 304 µM | HT-29 > 304 µM | OVCAR-3 64.6 µM | RXF 393 > 304 µM | HCC 2998 > 304 µM | ACHN > 304 µM | IGROV-1 225 µM | SW-620 > 304 µM | OVCAR-8 > 304 µM | Malme-3M > 304 µM

O=C1C2=C(c3ccccc31)C(c1ccc(F)cc1)N1C(=O)CCSC1=N2 (stereo not drawn)
98.4 µM: HCT-15
inactive: CCRF-CEM 89.5 µM | HCT-116 95.7 µM | SNB-75 24.4 µM | 786-0 > 100 µM | SK-MEL-2 > 100 µM | HT-29 > 100 µM | OVCAR-3 > 100 µM | A498 > 100 µM | HCC 2998 > 100 µM | ACHN > 100 µM | IGROV-1 > 100 µM | SW-620 > 100 µM | OVCAR-8 > 100 µM | Malme-3M > 100 µM

O=Cc1cn(S(=O)(=O)c2ccccc2)c2ccccc12
inactive: CCRF-CEM 23.3 µM | HCT-116 20 µM | SNB-75 26.2 µM | 786-0 55.5 µM | HT-29 55.5 µM | OVCAR-3 41 µM | RXF 393 95.5 µM | A498 > 100 µM | HCC 2998 > 100 µM | ACHN > 100 µM | IGROV-1 > 100 µM | SW-620 35.5 µM | OVCAR-8 33.5 µM | Malme-3M 34.5 µM
35.2 µM: HCT-15

COc1ccc(C2=NC(C)(C)CO2)cc1
inactive: CCRF-CEM > 100 µM | HCT-116 > 100 µM | SNB-75 > 100 µM | 786-0 > 100 µM | SK-MEL-2 > 100 µM | HT-29 > 100 µM | OVCAR-3 > 100 µM | RXF 393 > 100 µM | A498 > 100 µM | ACHN > 100 µM | IGROV-1 > 100 µM | SW-620 > 100 µM | OVCAR-8 > 100 µM | Malme-3M > 100 µM
> 100 µM: HCT-15

CC[P+](C)(Cc1ccccc1)c1ccccc1.O=C(OC(C(=O)[O-])C(OC(=O)c1ccccc1)C(=O)O)c1ccccc1 (stereo not drawn)
inactive: SNB-75 > 100 µM | 786-0 > 100 µM | SK-MEL-2 > 100 µM | HT-29 > 100 µM | RXF 393 > 100 µM | HCC 2998 > 100 µM | IGROV-1 > 100 µM | OVCAR-8 > 100 µM | Malme-3M > 100 µM
> 100 µM: HCT-15

O=C(c1ccccc1)c1nc2c(Cl)ccc(Cl)c2cc1C(Br)Br
0.69 µM: HCT-15
inactive: SK-MEL-2 2.01 µM | OVCAR-3 1.55 µM | RXF 393 2.34 µM | HCC 2998 2.06 µM | IGROV-1 2.75 µM | OVCAR-8 1.44 µM | Malme-3M 2.19 µM
active: CCRF-CEM 0.191 µM | HCT-116 0.375 µM | SNB-75 0.668 µM | 786-0 0.286 µM | ACHN 0.243 µM | SW-620 0.308 µM

COC1OC(CO)C(O)C(O)C1Br (stereo not drawn)
> 100 µM: HCT-15
inactive: CCRF-CEM > 100 µM | HCT-116 > 100 µM | 786-0 > 100 µM | HT-29 > 100 µM | OVCAR-3 > 100 µM | RXF 393 > 100 µM | A498 > 100 µM | HCC 2998 > 100 µM | ACHN > 100 µM | IGROV-1 > 100 µM | SW-620 > 100 µM | OVCAR-8 > 100 µM | Malme-3M > 100 µM

Cc1ccc(C)c2c1CCc1cc3ccccc3nc1-2
> 100 µM: HCT-15
inactive: CCRF-CEM > 100 µM | HCT-116 > 100 µM | SNB-75 98.6 µM | 786-0 > 100 µM | SK-MEL-2 > 100 µM | HT-29 > 100 µM | OVCAR-3 > 100 µM | A498 > 100 µM | HCC 2998 > 100 µM | ACHN > 100 µM | IGROV-1 > 100 µM | SW-620 > 100 µM | OVCAR-8 > 100 µM | Malme-3M > 100 µM

CN(C)CCNC(=O)C1COc2cc(-c3cc(=O)c4ccccc4o3)ccc2O1 (stereo not drawn)
27.7 µM: HCT-15
inactive: CCRF-CEM 30.4 µM | HCT-116 15.1 µM | SNB-75 17.8 µM | 786-0 18.1 µM | HT-29 16.9 µM | OVCAR-3 20.5 µM | RXF 393 21.4 µM | A498 19 µM | HCC 2998 > 100 µM | ACHN 16.9 µM | IGROV-1 22.2 µM | SW-620 18.2 µM | OVCAR-8 23.6 µM | Malme-3M 21.7 µM

COc1ccc2c3c([nH]c2c1[N+](=O)[O-])C(C)N(Cc1ccccc1)CC3 (stereo not drawn)
inactive: CCRF-CEM 2.51 µM | HCT-116 3.08 µM | 786-0 4.35 µM | SK-MEL-2 3.52 µM | HT-29 2.92 µM | OVCAR-3 3.52 µM | RXF 393 3.21 µM | A498 2.4 µM | HCC 2998 11.5 µM | ACHN 6.31 µM | IGROV-1 3.57 µM | SW-620 2.11 µM | OVCAR-8 3.72 µM
3.61 µM: HCT-15

CC1CC2CC(=O)CC3(C1)C2CCCN3CCCO (stereo not drawn)
inactive: CCRF-CEM > 100 µM | HCT-116 > 100 µM | SNB-75 > 100 µM | 786-0 > 100 µM | SK-MEL-2 > 100 µM | HT-29 > 100 µM | OVCAR-3 > 100 µM | RXF 393 > 100 µM | A498 > 100 µM | ACHN > 100 µM | IGROV-1 > 100 µM | SW-620 > 100 µM | OVCAR-8 > 100 µM | Malme-3M > 100 µM
